From patent publication US20030059421A1, “DNA encoding the baboon and cynomolgus macaque prostoglandin E2 receptor EP4 subtype” (Pfizer Inc., priority 2001, published 2003)
pEC50, pIC50: −log10 of the molar value.

Columns and labels:
[1] = molecular target: T1, baboon prostaglandin receptor EP4 (baEP4) (Papio cynocephalus, UniProt Q7JGJ7); test: Competition binding with 3H-PGE2 on CHO-K1 cells transiently transfected with baboon EP4; details: for pIC50: baEP4 transfected CHO-K1 whole cells, 3 nM 3H-PGE2, 1 hr on ice, read-out: IC50, displacement of 3H-PGE2 binding
T1 sequence (Q7JGJ7 entry or part of it): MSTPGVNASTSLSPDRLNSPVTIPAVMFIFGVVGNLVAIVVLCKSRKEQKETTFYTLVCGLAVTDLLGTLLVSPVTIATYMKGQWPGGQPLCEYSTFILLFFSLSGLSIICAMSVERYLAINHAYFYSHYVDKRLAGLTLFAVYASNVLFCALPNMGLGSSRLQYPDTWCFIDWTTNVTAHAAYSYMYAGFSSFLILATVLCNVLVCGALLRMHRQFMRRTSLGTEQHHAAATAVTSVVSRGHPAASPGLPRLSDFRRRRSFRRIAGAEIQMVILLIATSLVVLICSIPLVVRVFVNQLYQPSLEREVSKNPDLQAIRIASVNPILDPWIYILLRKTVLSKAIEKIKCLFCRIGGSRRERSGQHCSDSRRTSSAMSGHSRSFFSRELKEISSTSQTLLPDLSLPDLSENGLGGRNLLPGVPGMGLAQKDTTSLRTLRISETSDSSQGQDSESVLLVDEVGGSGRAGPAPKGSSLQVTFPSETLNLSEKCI
Procedure: Following washing and solubilization of the cells, specific binding was determined by scintillation counting.
(§5) To test the binding and signaling characteristics of this putative ba/cynEP4 receptor, DNA fragments containing the entire open reading frames of each baboon and cynomolgus macaque were separately transiently transfected into CHO—K1 cells.
The day prior to transfection, CHO—K1 cells were plated in 100 mm dishes (Corning, Corning, N.Y.) at 6×10^4 cells/cm^2 in DMEM/F12 (Life Technologies) supplemented with 10% fetal calf serum (FCS; Gemini Bio-Products, Calabasas, Calif.). The next day, each plate of cells was transfected with 15 g of either baboon or cynomolgus macaque EP4-pCR3.1-Uni plasmid DNA using Lipofectamine 2000 reagent (Life Technologies) according to the manufacturer's protocol. Briefly, 45 l of Lipofectamine 2000 reagent was diluted into 1.5 ml of D-MEM/F12 without serum and incubated at room temperature for 5 minutes. During this time, 15 g of either baboon or cynomolgus macaque EP4-pCR3.1-Uni plasmid DNA was diluted into 0.5 ml of D-MEM/F12 without serum. The diluted Lipofectamine 2000 reagent and the DNA were then mixed and incubated an additional 20 minutes at room temperature. 8 ml D-MEM/F12 without serum was then added to each reaction and carefully added to a plate of CHO cell previously rinsed with serum free D-MEM/F12. These cells were then incubated at 37° C. with 5% CO2 for 6 hr at which time 1 ml FCS was added per plate and the incubation continued at 37° C. with 5% CO2 overnight. The following day, the cells were split to either 24-well or 96-well dishes for use in ligand binding and/or secondary signaling analyses.
CHO cells transiently transfected with the baboon EP4 or cynomolgus macaque EP4 receptor were plated at 60,000 cells/well in 24-well tissue-culture dishes (Corning, Corning, N.Y.) and allowed to grow for 48 hours. […] Unbound radioligand was removed by extensive washing, the cells were solubilized with 1% SDS, and the bound ^3H-PGE2 quantitated by scintillation counting.

[2] = molecular target: T2, cynomolgus macaque prostaglandin receptor EP4 (cynEP4) (Macaca fascicularis, UniProt Q95J39); test: Competition binding with 3H-PGE2 on CHO-K1 cells transiently transfected with cynomolgus macaque EP4; details: for pIC50: cynEP4 transfected CHO-K1 whole cells, 3 nM 3H-PGE2, 1 hr on ice, read-out: IC50, displacement of 3H-PGE2 binding
T2 sequence (Q95J39 entry or part of it): as the sequence (Q7JGJ7 entry or part of it) above
Procedure: Each indicated concentration of (▪) PGE2, (♦) EP4SL, (▴) butaprost, or (●) sulprostone was incubated with three wells of a 24-well dish of CHO cells transiently transfected with cynEP4 for 1 hr on ice in the presence of 3 nM ^3H-PGE2. Following washing and solubilization of the cells, specific binding was determined by scintillation counting.
as §5
CHO cells transiently transfected with the baboon EP4 or cynomolgus macaque EP4 receptor were plated at 60,000 cells/well in 24-well tissue-culture dishes (Corning, Corning, N.Y.) and allowed to grow for 48 hours. Whole cell binding reactions (0.2 ml per well) containing 3 nM ^3H-PGE2 plus unlabeled competitor (10^−5 to 10^−10 M) were performed on ice for 1 hr. Unbound radioligand was removed by extensive washing, the cells were solubilized with 1% SDS, and the bound ^3H-PGE2 quantitated by scintillation counting.

[3] = molecular target: T1, baboon prostaglandin receptor EP4 (baEP4); test: cAMP accumulation (SPA) in CHO cells transiently transfected with baboon EP4; format: cell-based; details: 12 minutes treatment, IBMX present
Procedure: (§1) FIG. 6 provides characterization of secondary signaling in CHO cells expressing baboon prostaglandin receptor EP4. An SPA assay was performed on CHO cells transiently transfected with baboon EP4 following treatment for 12 minutes with either (▪) PGE2 or the EP4 specific ligand (●) EP4SL. Error bars represent one standard deviation.
(§2) Secondary signaling in CHO cells expressing baEP4 or cynEP4 was measured by cAMP accumulation. CHO cells transiently transfected with baEP4 or cynEP4 were treated for 12 minutes with various concentrations of PGE2 in the presence of 2 mM IBMX. Accumulation of intracellular cAMP was measured at the end of the treatment period by use of a commercially available scintillation proximity assay (SPA) kit (Amersham, Arlington Heights, Ill.).
(§3) The day prior to transfection, CHO—K1 cells were plated in 100 mm dishes (Corning, Corning, N.Y.) at 6×10^4 cells/cm^2 in DMEM/F12 (Life Technologies) supplemented with 10% fetal calf serum (FCS; Gemini Bio-Products, Calabasas, Calif.). […]
(§4) To measure stimulation of cAMP production, CHO cells transiently transfected with the baboon EP4 or cynomolgus macaque EP4 receptor were plated at 20,000 cells/well in poly-D lysine coated 96-well tissue-culture plates (Becton-Dickinson, Franklin Lakes, N.J.) and allowed to grow for 72 hours. […] Assay plates were then counted in a Wallac Trilux counter (Perkin Elmer, Boston, Mass.).

[4] = molecular target: T2, cynomolgus macaque prostaglandin receptor EP4 (cynEP4); test: cAMP accumulation (SPA) in CHO cells transiently transfected with cynomolgus macaque EP4; format: cell-based; details: 12 minutes treatment, IBMX present
Procedure: as §1, with “7” for “6”, “cynomolgus macaque” for “baboon”, “cynEP4” for “baboon EP4”
as §2, §3, §4

[5] = test system: parental CHO—K1 cells; test: cAMP levels in parental CHO-K1 cells; format: cell-based, Chinese hamster; details: parental (untransfected) CHO-K1 cells

Row | binding to the receptor (competition with 3H-PGE2), result in words ([1]; baEP4 transfected CHO-K1 cells, competitor 10^-5 to 10^-10 M) | binding to the receptor (competition with 3H-PGE2), result in words ([2]; cynEP4 transfected CHO-K1 cells, competitor 10^-5 to 10^-10 M) | Structure (SMILES) | pIC50 [1] | pIC50 [2] | pEC50 [3] | pEC50 [4] | increased levels of cAMP, result in words [5]
1 | did not bind | did not bind | CCCC1([C@H](O)C/C=C/[C@H]2[C@H](O)CC(=O)[C@@H]2CCCCCCC(=O)OC)CCC1 [butaprost] | – | – | – | – | –
2 | – | – | O=C(O)CCCCCCN1C(=O)CCC1CCC(O)Cc1ccccc1 (stereo not drawn) [EP4SL, 7-[2-(3-hydroxy-4-phenyl-butyl)-5-oxo-pyrrolidin-1-yl]-heptanoic acid] | 6.44 | 6.52 | 6.06 | 6.25 | not in parental CHO—K1 cells
3 | – | – | CCCCC[C@H](O)/C=C/[C@H]1[C@H](O)CC(=O)[C@@H]1C/C=C\CCCC(=O)O [PGE2, Prostaglandin E2] | 8.59 | 8.60 | 7.65 | 8.05 | not in parental CHO—K1 cells
